{"source": "patent US20150366879A1", "about": "“DIFLUPREDNATE EMULSION COMPOSITION CONTAINING ANTIMICROBIAL METAL” (SENJU PHARMACEUTICAL CO., LTD., priority 2013, published 2015)", "tested_on": "Staphylococcus aureus, Escherichia coli and Pseudomonas aeruginosa", "experiment": "preservative efficacy test, judgment of immediate effectiveness over all microbial species", "format": "cell-based", "procedure": "As the test microorganism, Staphylococcus aureus (ATCC 6538), Escherichia coli (ATCC 8739) and Pseudomonas aeruginosa (ATCC 9027) were used. Each test microorganism was inoculated on the surface of a slant agar medium and precultured. The preculture was conducted using a soybean casein digest agar medium at 30-35° C. for 18-24 hr.\nAn emulsion composition to be subjected to the test was used as a sample, and the sample was dispensed to 5 sterilized stoppered test tubes by 10 mL each. A precultured test microorganism was added to the sample such that the cell count was 10^5-10^6 cells/mL to give a mixed sample. The test microorganism was singly added to the sample. The mixed sample was preserved at 20-25° C. with protection from light.\nAt 6 hr and 24 hr from the start of the preservation, 1 mL of each mixed sample was taken, and the solution was diluted with saline (9 mL). Similar dilution was performed 2-3 times and each diluted solution (1 mL) was dispensed to a sterilized petri dish, and then, 0.1 (w/v) % lecithin-0.7 (w/v) % polysorbate 80-added soybean casein digest agar medium was added to the bacteria, and the mixture was cultured at 30-35° C. for about 3 days. The colony forming units were measured, and the viable cell count per 1 mL of the mixed sample was calculated.\nWhen the viable cell counts of all microbial species decreased by 3 log or more after 24 hr from the start of the test, an immediate effectiveness of preservative efficacy was judged to be present and the judgment was compatible. When further immediate effectiveness of preservative efficacy is demanded, it was judged to be present when the viable cell counts of all microbial species decreased by 3 log or more after 24 hr from the start of the test and the viable cell counts of all microbial species decreased by 2 log or more after 6 hr from the start of the test, and the judgment was compatible.", "key": {"[1]": {"conditions": "added as preservative to difluprednate emulsion composition"}}, "note": "Structures can show the parent of a compound that is named as a salt. Where two headings read alike, the source gives them in different places.", "data": [{"molecule": "O=S(=O)([O-])[O-].[Cu+2]", "note": "[copper sulfate]", "values": [{"measurement": "concentration at which excellent immediate effectiveness of preservative efficacy was obtained", "value": "not less than 0.0005 (w/v) %"}]}, {"molecule": "Oc1cccc2cccnc12", "note": "[oxyquinoline sulfate]", "values": [{"measurement": "immediate effectiveness of preservative efficacy", "value": "not found"}]}, {"molecule": "O=[N+]([O-])[O-].[Ag+]", "note": "[silver nitrate]", "values": [{"measurement": "concentration at which further (excellent) immediate effectiveness was found", "setting": "as silver ion, 6 hr and 24 hr criteria, in difluprednate emulsion", "value": "not less than 0.005 (w/v) %"}, {"measurement": "concentration at which immediate effectiveness of preservative efficacy was found", "setting": "as silver ion, 24 hr criterion, in difluprednate emulsion", "value": "not less than 0.0005 (w/v) %"}]}, {"molecule": "C/C=C/C=C/C(=O)O", "note": "[sorbic acid]", "values": [{"measurement": "immediate effectiveness of preservative efficacy", "setting": "[1]", "value": "not found"}]}, {"molecule": "benzalkonium chloride", "values": [{"measurement": "immediate effectiveness of preservative efficacy", "setting": "[1]", "value": "not found"}]}]}
